From ChEMBL document CHEMBL1201862, “PubChem BioAssay data set” (2004) come the findings set out here.

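These data come from cells grown in 96-well plates and exposed to compound for 48 hours at five concentrations. At the GI50, growth is halved.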 Calls of active or inactive are those of the source. No stated cut-off is given here; in the data, active = GI50 up to about 1.1 µM and inactive = higher.

Some test systems named below: ACHN; OVCAR-4; HOP-92; PC-3; UACC-257; HCC 2998; HL-60; K562; T47D; MDA-MB-435; HT-29; IGROV-1; SF-295; SK-OV-3; RXF 393; UACC-62; SK-MEL-28; SF-539; SN12C.
Holding throughout (assay): DTP human tumour cell line panel, 48 h

Turning to `C#CCNC(CS)C(=O)O` (stereo not given), the GI50 in the assay on ACHN, with OVCAR-4, in the assay on HOP-92, in the assay on PC-3, in the assay with UACC-257 and with HCC 2998 was > 100 µM (inactive) in each case. Also, the GI50 with HL-60, with K562, in the assay with T47D, with MDA-MB-435, with HT-29 and in the assay on IGROV-1 was > 100 µM (inactive) in each case. In addition, the GI50 with SF-295, in the assay on SK-OV-3, in the assay with RXF 393, in the assay with UACC-62 and in the assay on SK-MEL-28 was > 100 µM (inactive) throughout.
Take `C=C1CC2CCCC12C=O` (stereo not given): the GI50 in the assay with ACHN, with SF-539, with OVCAR-4, in the assay with HOP-92, in the assay on PC-3 and with UACC-257 was > 10 µM (inactive) in each case. For the same compound, the GI50 with HCC 2998, in the assay on SN12C, in the assay with HL-60, in the assay on K562, in the assay with T47D and with MDA-MB-435 was > 10 µM (inactive) in each case. Besides, the GI50 in the assay with HT-29, in the assay with IGROV-1, in the assay on SF-295, with SK-OV-3, in the assay on UACC-62 and in the assay on SK-MEL-28 was > 10 µM (inactive) in each case.
As to `COc1cc2c3c(cc(Cl)nc3c1OC)C(=O)C(=O)N2`, the GI50 – broadly, the concentration that inhibits growth by half – in the assay with ACHN is 14.7 µM (inactive); with SF-539, 20.2 µM (inactive); in the assay with OVCAR-4, 1.6 µM (inactive); in the assay with HOP-92, 1.81 µM (inactive); in the assay with PC-3, 14.5 µM (inactive); in the assay with UACC-257, 8.39 µM (inactive). For the same compound, the GI50 in the assay with HCC 2998 was 18.2 µM (inactive); in the assay on SN12C, 8.99 µM (inactive); in the assay with HL-60, 1.36 µM (inactive); in the assay with K562 it was 2.91 µM (inactive); in the assay on T47D, 3.68 µM (inactive); in the assay with MDA-MB-435, 1.79 µM (inactive). Further, the GI50 is 22.4 µM (inactive) in the assay on HT-29; 9.89 µM (inactive) in the assay with IGROV-1; 18.6 µM (inactive) in the assay on SF-295; 18 µM (inactive) in the assay on SK-OV-3; 13.6 µM (inactive) in the assay on RXF 393; 6.28 µM (inactive) with UACC-62. In the assay on SK-MEL-28, the GI50 was 17.1 µM (inactive).
As to `Cc1cc(N(CCC#N)CCC#N)ccc1/C=C1\SC(=S)NC1=O`, the GI50 in the assay on ACHN was > 100 µM (inactive); in the assay on SF-539, 69.5 µM (inactive); with OVCAR-4, > 100 µM (inactive); in the assay with HOP-92 it was 36.4 µM (inactive); with PC-3 it was 36.8 µM (inactive); with UACC-257, > 100 µM (inactive). The GI50 is > 100 µM (inactive) in the assay on HCC 2998; > 100 µM (inactive) with SN12C; 32.5 µM (inactive) in the assay with HL-60; 40 µM (inactive) in the assay on K562; 66.7 µM (inactive) with T47D; 82.2 µM (inactive) in the assay on MDA-MB-435. For the same compound, the GI50 with HT-29 is > 100 µM (inactive); in the assay with IGROV-1 it was 65.3 µM (inactive); in the assay with SF-295 it was 17.5 µM (inactive); in the assay on SK-OV-3, 21.5 µM (inactive); with RXF 393, 19.8 µM (inactive); with UACC-62, 48.6 µM (inactive). In addition, the GI50 in the assay on SK-MEL-28 is > 100 µM (inactive).
For the compound `COc1ccccc1CNCc1nc2ccccc2[nH]1`, the GI50 in the assay with ACHN, in the assay with SF-539, in the assay on OVCAR-4, in the assay on HOP-92, with PC-3 and in the assay on UACC-257 was > 100 µM (inactive) in each case. Moreover, the GI50 in the assay with HCC 2998 is > 100 µM (inactive); in the assay with SN12C, > 100 µM (inactive); in the assay with HL-60 it was 80.5 µM (inactive); in the assay with K562 it was > 100 µM (inactive); in the assay on T47D it was > 100 µM (inactive); in the assay on MDA-MB-435, > 100 µM (inactive). Besides, the GI50 with HT-29 was 78.7 µM (inactive); in the assay on IGROV-1, > 100 µM (inactive); in the assay with SF-295 it was > 100 µM (inactive); in the assay on RXF 393 it was > 100 µM (inactive); in the assay with UACC-62, > 100 µM (inactive); with SK-MEL-28, > 100 µM (inactive).
On to `Cn1c(SCc2c[nH]c3ccccc23)nnc1-c1ccc(Cl)cc1Cl`, for which the GI50 in the assay with ACHN was 23.9 µM (inactive); in the assay on SF-539, 3.14 µM (inactive); in the assay on OVCAR-4, 12.4 µM (inactive); with HOP-92, 12.6 µM (inactive); in the assay with PC-3, 12.1 µM (inactive); in the assay with UACC-257 it was 19.9 µM (inactive). Besides, the GI50 in the assay on HCC 2998 was 12 µM (inactive); in the assay on SN12C it was 17.1 µM (inactive); in the assay on HL-60, 10.4 µM (inactive); in the assay on K562 it was 4.23 µM (inactive); in the assay with T47D, 12.7 µM (inactive); in the assay with MDA-MB-435, 3 µM (inactive). Besides, the GI50 in the assay with HT-29 was 17.3 µM (inactive); in the assay with IGROV-1, 17.4 µM (inactive); with SF-295, 8.3 µM (inactive); in the assay on SK-OV-3 it was 15.9 µM (inactive); with RXF 393, 12.2 µM (inactive); in the assay with UACC-62 it was 12 µM (inactive). For the same compound, in the assay with SK-MEL-28, the GI50 was 36.2 µM (inactive).
For `NNC(=O)c1c(SCc2ccccc2)nc2c3ccccc3ccn12`, the GI50 in the assay with ACHN is 27.2 µM (inactive); in the assay with SF-539, 15.9 µM (inactive); with OVCAR-4, 14.5 µM (inactive); in the assay on HOP-92 it was 17 µM (inactive); in the assay with PC-3, 17.1 µM (inactive); in the assay on UACC-257, 37.2 µM (inactive). For the same compound, the GI50 in the assay with HCC 2998 is 46.8 µM (inactive); in the assay with SN12C, 17 µM (inactive); in the assay on HL-60, 9.08 µM (inactive); with K562, 14.7 µM (inactive); in the assay on T47D, 18.1 µM (inactive); in the assay with MDA-MB-435 it was 17.1 µM (inactive). Also, the GI50 with HT-29 was 16.5 µM (inactive); in the assay with IGROV-1, 14.4 µM (inactive); in the assay with SF-295, 21.9 µM (inactive); with SK-OV-3 it was 27.1 µM (inactive); in the assay on RXF 393, 15.2 µM (inactive); in the assay with UACC-62, 10.2 µM (inactive). In the assay with SK-MEL-28, the GI50 was 18.1 µM (inactive).
On to `CCC(C)[C@@H](NC1=C(Cl)C(=O)c2c(O)ccc(O)c2C1=O)C(=O)OC` (stereo not given in full), for which the GI50 was 3.91 µM (inactive) in the assay with ACHN; 4.08 µM (inactive) in the assay with SF-539; 2.84 µM (inactive) in the assay on OVCAR-4; > 10 µM (inactive) with HOP-92; 3.86 µM (inactive) in the assay on PC-3; 2.18 µM (inactive) in the assay with UACC-257. For the same compound, the GI50 is > 10 µM (inactive) with HCC 2998; 3.66 µM (inactive) in the assay on SN12C; 2 µM (inactive) with HL-60; 3.59 µM (inactive) in the assay on K562; > 10 µM (inactive) in the assay on T47D; 3.55 µM (inactive) with MDA-MB-435. Moreover, the GI50 with HT-29 was 3.01 µM (inactive); with IGROV-1, 3.95 µM (inactive); with SF-295, 4.92 µM (inactive); with SK-OV-3, 6.68 µM (inactive); in the assay with UACC-62, 3.37 µM (inactive).
As to `C=C1CC(Cn2cc(C)c(=O)[nH]c2=O)(c2ccc(-c3ccccc3)cc2)OC1=O` (stereo not given), the GI50 is 3.07 µM (inactive) in the assay with ACHN; 2.07 µM (inactive) in the assay on SF-539; 2.49 µM (inactive) in the assay on OVCAR-4; 1.95 µM (inactive) in the assay on HOP-92; 2.01 µM (inactive) with PC-3; 1.44 µM (inactive) with UACC-257. The GI50 in the assay on HCC 2998 is 1.86 µM (inactive); with SN12C it was 2.54 µM (inactive); in the assay on HL-60, 0.415 µM (active); with K562, 0.296 µM (active); in the assay with T47D it was 1.99 µM (inactive); in the assay on MDA-MB-435 it was 1.8 µM (inactive). The GI50 with HT-29 was 0.875 µM (active); in the assay with IGROV-1, 1.82 µM (inactive); in the assay with SF-295, 8.85 µM (inactive); in the assay on SK-OV-3, 6.53 µM (inactive); in the assay with UACC-62, 1.76 µM (inactive); with SK-MEL-28 it was 1.78 µM (inactive).
Regarding `O=C1CS(=O)(=O)C(c2cccc(Oc3ccccc3)c2)N1c1ccccc1` (stereo not given), the GI50 in the assay with ACHN was 23.7 µM (inactive); in the assay on SF-539, 21.3 µM (inactive); in the assay on OVCAR-4 it was 26.1 µM (inactive); with HOP-92, 14.6 µM (inactive); with PC-3, 19.1 µM (inactive); in the assay on UACC-257 it was 18.6 µM (inactive). Also, the GI50 with HCC 2998 was 16.9 µM (inactive); with SN12C it was 19.4 µM (inactive); in the assay on HL-60, 21.1 µM (inactive); in the assay with K562 it was 14.4 µM (inactive); in the assay on T47D, 15.3 µM (inactive); in the assay with MDA-MB-435, 27.4 µM (inactive). Moreover, the GI50 in the assay with HT-29 is 26.5 µM (inactive); in the assay with SF-295, 30.5 µM (inactive); in the assay with SK-OV-3 it was 35.2 µM (inactive); in the assay on RXF 393, 19.3 µM (inactive); with UACC-62, 12.4 µM (inactive); in the assay with SK-MEL-28, 26.2 µM (inactive).
Turning to `Cc1nc(C)c(C(=O)NNC(=O)c2ccccc2)cc1C(=O)NNC(=O)c1ccccc1`, the GI50 in the assay on ACHN, in the assay on SF-539, with OVCAR-4, in the assay with HOP-92, in the assay with PC-3 and in the assay with UACC-257 was > 100 µM (inactive) throughout. For the same compound, the GI50 in the assay on HCC 2998, in the assay on SN12C, with HL-60, with K562, in the assay on T47D and in the assay on MDA-MB-435 was > 100 µM (inactive) throughout. Further, the GI50 in the assay with HT-29 was > 100 µM (inactive); with IGROV-1, > 10 µM (inactive); in the assay on SF-295 it was > 100 µM (inactive); in the assay on SK-OV-3 it was > 100 µM (inactive); in the assay on RXF 393, > 100 µM (inactive); in the assay on UACC-62 it was > 100 µM (inactive).
